Test results reported in patent US9992994B2, “Agricultural and detergent compositions containing a tertiary amide as adjuvant or as surfactant” (Taminco BVBA, priority 2011, dated 2018).
Where two headings read alike, the source gives them in different places. Blank lines part the entries; values can stand above or below the molecule they belong to.

Experiments:
[1] = 20° C., cited from earlier work
[2] = compatibility of diquats with anionic surfactant in water; assay type: physicochemical; design: key: Cl. = Clear; Blu. = Bluish; Visc. = Viscous; Prec. = Precipitate; Turb. = Turbid; conditions: 1 wt % total surfactant in water, ambient temperature
Protocol: To delimit the applicability of the Diquats the compatibility in different ratios with LES was tested in the temperature range between 0° C. and 90° C. […] With a hydrocarbon tail of up to 10 carbon atoms no precipitation was observed and with increasing chain length only a very narrow region of mixing ratios led to an insoluble deposit.

[3] = solubility temperatures of 1 wt % solutions; assay type: physicochemical
[4] = tested on: common lambsquarter (Chenopodium album L.; CHEAL); test: adjuvant for Carfentrazon-ethyl test; assay type: in vivo; conditions: Spotlight Plus, 7 DAT
Protocol: In this test we looked at the performance with Carfentrazone-ethyl (Spotlight Plus from FMC) on common lambsquarter (Chenopodium album L.; CHEAL).
After emergence, the seedlings were thinned to two plants per pot for the efficacy experiments. The common lambsquarters were treated at the four-leaf stage. The fresh weights of the plants were measured 7 days after treatment (7 DAT).
The following herbicide was used in the treatment solutions: Carfentrazone-ethyl, Spotlight Plus (FMC) ME formulation, 60 g a.i./L.
Demineralized water was used as the carrier.

[5] = tested on: Black nightshade (Solanum nigrum L.; SOLNI); conditions: Dicamba DMA-salt, Banvel, 16 DAT
Protocol: Black nightshade (Solanum nigrum L.; SOLNI) was grown in a growth chamber under 14 h of light, at 18/12 (±0.5) ° C. (day/night) temperature, and in 70/80 (±5)% (day/night) relative humidity. Light was provided by high-pressure mercury lamps and fluorescent tubes to give 250 pmol m^−2 s^−1 at leaf level. The plants were grown in 11-cm-diam plastic pots filled with a mixture of sand and humic potting soil (1:2 by volume). The pots were placed on subirrigation matting, which was wetted daily with a half-strength nutrient solution. After emergence, the seedlings were thinned to one plant per pot for the efficacy experiments. Black nightshade was treated at the four-leaf stage. The fresh weights of the plants were measured 16 days after treatment (16 DAT).
The treatment solutions were applied with an air-pressured laboratory track sprayer having 1.2-mm nozzles fitted with a perforated (0.6 mm) whirling pin and delivering 200 L/ha at 303 kPa.
The experiment was conducted with four replicates per experiment according to a completely randomized design.

[6] = tested on: Wild oat (Avena fatua L.; AVEFA); test: adjuvant for Fenoxaprop-P-ethyl test; assay type: in vivo; conditions: Puma EW, 21 DAT
Protocol: In this test the performance with Fenoxaprop-P-ethyl was looked at. Plant material. […] After emergence, the seedlings were thinned to four plants per pot for the efficacy experiments. The plants were treated at the three-leaf stage. The fresh weights of the plants were measured 21 days after treatment (21 DAT). […] The following herbicide was included in the treatment solutions: Fenoxaprop-P-ethyl, Puma EW formulation, 69 g a.i./L. […] Demineralized water was used as the carrier.

Black nightshade (SOLNI) = test: adjuvant for glyphosate test on black nightshade; assay type: in vivo; conditions: where named, 0.25% w/v, 14 DAT; for Fresh Weight SOLNI: IPA-glyphosate 0.6 mM (20.3 g ae/ha at 200 L/ha); for Relative weight SOLNI (%): untreated plant = 100%, IPA-glyphosate 0.6 mM
Protocol: (§1) Wheat plants were used as a model for difficult to wet grasses and black nightshade was used as a model for a plant with an easy to wet but difficult to permeate leaf surface.
(§2) After emergence, the wheat seedlings were thinned to six plants per pot for the efficacy experiments. Black nightshade seedlings were thinned to one plant per pot. Black nightshade and wheat were treated at the four- and the three-leaf stage, respectively. The fresh weights of the plants were measured 14 days after treatment (14 DAT; black nightshade) or 21 days after treatment (21 DAT; wheat).
(§3) Demineralized water was used as the carrier. […] Based on previous work, these rates were 20.3 g ae/ha (equivalent to 0.6 mM) on black nightshade and 77.8 g ae/ha (equivalent to 2.3 mM at 200 L/ha) on wheat (ae=acid equivalent).
(§4) The fresh weight of the untreated plant was taken as a reference (100%). […] An industrial standard was also included in the test series.

winter wheat (cv. Ilias) = test: adjuvant for glyphosate test on wheat; assay type: in vivo; conditions: where named, 0.25% w/v, 21 DAT; for Fresh Weight WHEAT: IPA-glyphosate 2.3 mM (77.8 g ae/ha at 200 L/ha); for Relative weight WHEAT (%): untreated plant = 100%, IPA-glyphosate 2.3 mM
Protocol: as §1, §2, §3, §4

[7] = Manometric Respirometry Test (biodegradability); conditions: after 28 days
Protocol: Biodegradability test of N,N-bis(3-(dimethylamino) propyl)-octanamide was tested in a Manometric Respirometry Test according to Commission Regulation 440/2008/EC, Method C.4-D of May 30, 2008: Manometric Respirometry Test (EEC Publication N° L142/496, May 2008).
The percentage of biodegradation was 65% after 28 days.

[8] = solubility / miscibility in water and dodecane; assay type: physicochemical
Text: R1 is preferably an aliphatic group, in particular a fatty chain, having 5-13 carbon atoms (i.e. a C5 to C13 carbon chain), preferably 5-9 carbon atoms. This embodiment is especially advantageous when the amide is a diamine of formula (I). […] This is not only the case when one or more of the R2, R3, R4 and R5 groups are ethanol and/or tertiary propanol groups, but also when these groups are alkyl groups, in particular C1 to C3 alkyl groups. The R2, R3, R4 and R5 groups are preferably methyl groups. The corresponding DMAPA amides, on the other hand, show only poor water solubility.
Furthermore, they can be used efficiently in highly concentrated (so-called ‘high load’) agrochemical compositions to prevent phase separation to occur. The amphiphilic behaviour of the bisDMAPA amides is further illustrated in example 4.

[9] = sub-optimal rate + N,N-bis(3-(dimethylamino)propyl)octanamide 0.25% (w/v)
[10] = sub-optimal rate, no adjuvant, average of four replicates

Structure (SMILES): CCNc1nc(Cl)nc(NC(C)C)n1 [Atrazine]
log Kow ([1]; no pH given): 2.6

Structure (SMILES): CC(C)N1C(=O)c2ccccc2NS1(=O)=O [Bentazone]
log Kow ([1]; at pH 7): −0.5

Structure (SMILES): CCCCCCCCCCCCCCCCCC(=O)N(CCC[N+](C)(C)C)CCC[N+](C)(C)C.[Cl-].[Cl-] [C18MeCl]
Compatibility observation, 100% of Diquat ([2]; 100% diquat): Cl.
Compatibility observation, 10% of Diquat ([2]; mixture with Sodium Laureth Sulfate, 10% diquat): Cl.
Compatibility observation, 20% of Diquat ([2]; mixture with Sodium Laureth Sulfate, 20% diquat): Cl.
Compatibility observation, 30% of Diquat ([2]; mixture with Sodium Laureth Sulfate, 30% diquat): Cl.
Compatibility observation, 40% of Diquat ([2]; mixture with Sodium Laureth Sulfate, 40% diquat): Turb.
Compatibility observation, 50% of Diquat ([2]; mixture with Sodium Laureth Sulfate, 50% diquat): Visc.
Compatibility observation, 60% of Diquat ([2]; mixture with Sodium Laureth Sulfate, 60% diquat): Cl.
Compatibility observation, 70% of Diquat ([2]; mixture with Sodium Laureth Sulfate, 70% diquat): Cl.
Compatibility observation, 80% of Diquat ([2]; mixture with Sodium Laureth Sulfate, 80% diquat): Cl.
Compatibility observation, 90% of Diquat ([2]; mixture with Sodium Laureth Sulfate, 90% diquat): Cl.

Structure (SMILES): CCCCCCCCCCCCCCCC[N+](C)(C)C.[Br-] [CTAB, Cetrimonium bromide]
Solubility temperatures [° C.] 1 wt % [3]: 25 °C

Structure (SMILES): CCOC(=O)C(Cl)Cc1cc(-n2nc(C)n(C(F)F)c2=O)c(F)cc1Cl (stereo not drawn) [Carfentrazone-ethyl]
Fresh Weight CHEAL (g) Herbicide + Adjuvant [4, 9]: 0.7 g
Fresh weight CHEAL (g) Only herbicide [4, 10]: 4.9 g
log Kow ([1]; no pH given): 3.4

Structure (SMILES): CCCCCCCCCCCC[N+](C)(C)C.[Br-] [DTAB, Dodecyl Trimethyl Ammonium Bromide]
Solubility temperatures [° C.] 1 wt % [3]: <0 °C

Structure (SMILES): COc1c(Cl)ccc(Cl)c1C(=O)O [Dicamba]
log Kow ([1]; at pH 7): −1.9
Fresh Weight SOLNI (g) Herbicide + Adjuvant [5, 9]: 6.7 g
Fresh weight SOLNI (g) Only herbicide [5, 10]: 10.8 g

Structure (SMILES): CCOC(=O)[C@@H](C)Oc1ccc(Oc2nc3ccc(Cl)cc3o2)cc1 [Fenoxaprop-P-ethyl]
log Kow ([1]; no pH given): 4.3
Fresh Weight Wild Oat (g) Herbicide + Compound [6, 9]: 1.4 g
Fresh weight Wild Oat (g) Only herbicide [6, 10]: 16.4 g

Structure (SMILES): CC(C)N.O=C(O)CNCP(=O)(O)O [IPA-glyphosate, reference compound]
Fresh Weight SOLNI (Black nightshade (SOLNI)): 6.4 g
Relative weight SOLNI (%) (Black nightshade (SOLNI)): 55.2%
Fresh Weight WHEAT (winter wheat (cv. Ilias)): 12.6 g
Relative weight WHEAT (%) (winter wheat (cv. Ilias)): 71.7%

biodegradability classification [7]: Readily Biodegradable
percentage of biodegradation [7]: 65%
solubility in dodecane [8]: completely soluble
solubility in water [8]: completely soluble
Structure (SMILES): CCCCCCCC(=O)N(CCCN(C)C)CCCN(C)C [N,N-bis(3-(dimethylamino)propyl)octanamide]
Fresh Weight SOLNI (Black nightshade (SOLNI)): 1.6 g
Relative weight SOLNI (%) (Black nightshade (SOLNI)): 14.1%
Fresh Weight WHEAT (winter wheat (cv. Ilias)): 2.3 g
Relative weight WHEAT (%) (winter wheat (cv. Ilias)): 13.0%

Structure (SMILES): CCCCCCCCCCCC(=O)[O-].[Na+] [NaC12, Sodium Laurate]
Solubility temperatures [° C.] 1 wt % [3]: 25 °C

Structure (SMILES): COc1cc(OC)nc(NC(=O)NS(=O)(=O)c2ncccc2C(=O)N(C)C)n1 [Nicosulfuron]
log Kow ([1]; at pH 7): 0

Structure (SMILES): CCCCCCCCCCCC(=O)N(CCC[N+](C)(C)C)CCC[N+](C)(C)C.[Cl-].[Cl-] [R2, R3, R4, R5, R6 = —CH3 R1 = —C11H23]
Fresh Weight SOLNI (Black nightshade (SOLNI)): 5.8 g
Relative weight SOLNI (%) (Black nightshade (SOLNI)): 50.0%
Fresh Weight WHEAT (winter wheat (cv. Ilias)): 14.8 g
Relative weight WHEAT (%) (winter wheat (cv. Ilias)): 83.8%

Structure (SMILES): CCCCCCCCCCCCCCCCCC(=O)N(CCC[N+](C)(C)C)CCC[N+](C)(C)C.[Cl-].[Cl-] [R2, R3, R4, R5, R6 = —CH3 R1 = —C17H35]
Fresh Weight SOLNI (Black nightshade (SOLNI)): 2.8 g
Relative weight SOLNI (%) (Black nightshade (SOLNI)): 24.0%
Fresh Weight WHEAT (winter wheat (cv. Ilias)): 14.7 g
Relative weight WHEAT (%) (winter wheat (cv. Ilias)): 83.5%
